Where “and” joins values, the source holds several entries; their conditions need not be identical. Equal entries are not always repeated. Toxic doses and inconclusive results are not listed.
System: P388 leukemia ip, CD2F1 mice, survival T/C
Test: NCI In Vivo Anticancer Drug Screen. Data for tumor model P388 Leukemia (intraperitoneal) in CD2F1 (CDF1) mice
Details: endpoint: median survival time, higher = longer survival
Procedure, shortened: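 Mice carrying the transplanted tumor received test compound or vehicle. Survival was recorded in each group, and the value is the treated-group measurement divided by that of the vehicle-treated control group.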

[1] = dose: 100.0 mg/kg/injection, schedule: Q04DX003 (ip), vehicle: saline with Tween-80
[2] = dose: 200.0 mg/kg/injection, schedule: Q04DX003 (ip), vehicle: saline with Tween-80
[3] = dose: 400.0 mg/kg/injection, schedule: Q04DX003 (ip), vehicle: saline with Tween-80
[4] = dose: 60.0 mg/kg/injection, schedule: Q01DX005 (ip), vehicle: Klucel (hydroxypropylcellulose) (HPC)
[5] = dose: 120.0 mg/kg/injection, schedule: Q01DX005 (ip), vehicle: Klucel (hydroxypropylcellulose) (HPC)
[6] = dose: 240.0 mg/kg/injection, schedule: Q01DX005 (ip), vehicle: Klucel (hydroxypropylcellulose) (HPC)
[7] = dose: 50.0 mg/kg/injection, schedule: Q01DX009 (ip), vehicle: saline with Tween-80
[8] = dose: 100.0 mg/kg/injection, schedule: Q01DX009 (ip), vehicle: saline with Tween-80
[9] = dose: 6.25 mg/kg/injection, schedule: Q01DX005 (ip), vehicle: Klucel (hydroxypropylcellulose) (HPC)
[10] = dose: 12.5 mg/kg/injection, schedule: Q01DX005 (ip), vehicle: Klucel (hydroxypropylcellulose) (HPC)
[11] = dose: 25.0 mg/kg/injection, schedule: Q01DX005 (ip), vehicle: Klucel (hydroxypropylcellulose) (HPC)
[12] = dose: 60.0 mg/kg/injection, schedule: Q01DX005 (ip), vehicle: saline with Tween-80
[13] = dose: 120.0 mg/kg/injection, schedule: Q01DX005 (ip), vehicle: saline with Tween-80
[14] = dose: 240.0 mg/kg/injection, schedule: Q01DX005 (ip), vehicle: saline with Tween-80
[15] = dose: 50.0 mg/kg/injection, schedule: Q01DX005 (ip), vehicle: saline with Tween-80
[16] = dose: 25.0 mg/kg/injection, schedule: Q01DX009 (ip), vehicle: saline with Tween-80
[17] = dose: 50.0 mg/kg/injection, schedule: Q01DX009 (ip), vehicle: saline
[18] = dose: 100.0 mg/kg/injection, schedule: Q01DX009 (ip), vehicle: saline
[19] = dose: 12.5 mg/kg/injection, schedule: Q01DX009 (ip), vehicle: saline
[20] = dose: 25.0 mg/kg/injection, schedule: Q01DX009 (ip), vehicle: saline
[21] = dose: 100.0 mg/kg/injection, schedule: Q01DX005 (ip), vehicle: saline with Tween-80
[22] = dose: 200.0 mg/kg/injection, schedule: Q01DX005 (ip), vehicle: saline with Tween-80

With Cc1cc(NC(=O)c2ccc(C(=O)Nc3ccc(C4=NCCN4)c(C)c3)cc2)ccc1C1=NCCN1 the T/C [1] was 118 % of control, the T/C [2] was 104 % of control and the T/C [3] was 104 % of control.

For CCCCCOn1nnc2ccccc21, the T/C [1] was 101 % of control, the T/C [2] was 101 % of control and the T/C [3] was 101 % of control.

CSc1nn(CCC#N)c(=O)[nH]c1=O was tested, and the T/C (dose: 25.0 mg/kg/injection, schedule: Q01DX005 (ip), vehicle: water) was 104 % of control, the T/C (dose: 50.0 mg/kg/injection, schedule: Q01DX005 (ip), vehicle: water) was 103 % of control and the T/C [4] was 105 % of control. The T/C (dose: 100.0 mg/kg/injection, schedule: Q01DX005 (ip), vehicle: water) was 110 % of control, the T/C [5] was 100 % of control and the T/C [6] was 100 % of control.

In the case of N#Cc1c(-c2ccccc2)c(-c2ccccc2)n(-c2ccccc2)c1N, the T/C [7] is reported as 104 % of control, the T/C [8] is reported as 104 % of control and the T/C (dose: 200.0 mg/kg/injection, schedule: Q01DX009 (ip), vehicle: saline with Tween-80) is reported as 104 % of control.

For O=C1c2ccncc2C(=O)c2c(O)ccc(O)c21, the T/C (dose: 12.5 mg/kg/injection, schedule: Q01DX009 (ip), vehicle: distilled water + Tween-80) was 102 % of control, the T/C (dose: 25.0 mg/kg/injection, schedule: Q01DX009 (ip), vehicle: distilled water + Tween-80) was 100 % of control and the T/C (dose: 50.0 mg/kg/injection, schedule: Q01DX009 (ip), vehicle: distilled water + Tween-80) was 98 % of control. The T/C (dose: 100.0 mg/kg/injection, schedule: Q01DX009 (ip), vehicle: distilled water + Tween-80) was 109 % of control.

In the case of CSc1nc(N)c(NS(=O)(=O)c2ccccc2)c(=O)[nH]1, the T/C [4] is reported as 92 % of control, the T/C [5] is reported as 91 % of control and the T/C [6] is reported as 90 % of control.

In the case of O=C1c2ccccc2C=c2c1nc1c(O)ccc3cccc2c31, the T/C [9] is reported as 101 % of control, the T/C [10] is reported as 100 % of control and the T/C [11] is reported as 111 % of control. The T/C (dose: 50.0 mg/kg/injection, schedule: Q01DX005 (ip), vehicle: Klucel (hydroxypropylcellulose) (HPC)) was 97 % of control.

With Oc1ccc(O)c(-n2nc3ccccc3n2)c1 the T/C [12] was 104 % of control, the T/C [13] was 103 % of control and the T/C [14] was 100 % of control.

For CSc1nc(N)nc2c1ncn2C1CC(O)C(CO)O1 (configuration not stated), the T/C (dose: 50.0 mg/kg/injection, schedule: Q04DX003 (ip), vehicle: Klucel (hydroxypropylcellulose) (HPC)) was 94 % of control, the T/C (dose: 100.0 mg/kg/injection, schedule: Q04DX003 (ip), vehicle: Klucel (hydroxypropylcellulose) (HPC)) was 100 % of control and the T/C (dose: 200.0 mg/kg/injection, schedule: Q04DX003 (ip), vehicle: Klucel (hydroxypropylcellulose) (HPC)) was 107 % of control. For the same molecule, the T/C (dose: 400.0 mg/kg/injection, schedule: Q04DX003 (ip), vehicle: Klucel (hydroxypropylcellulose) (HPC)) was 106 % of control.

For COc1cccc(Oc2ccc(C)c[n+]2CC(C)=O)c1, the T/C (dose: 25.0 mg/kg/injection, schedule: Q01DX005 (ip), vehicle: saline with Tween-80) was 100 % of control and the T/C [15] was 105 % of control.

In the case of c1ccc2c(SC3CCC4CC5CC4C3C5)nccc2c1 (configuration not stated), the T/C [12] is reported as 91 % of control, the T/C [13] is reported as 94 % of control and the T/C [14] is reported as 91 % of control.

O=Cc1ccc([N+](=O)[O-])[nH]1 was tested, and the T/C (dose: 12.5 mg/kg/injection, schedule: Q01DX009 (ip), vehicle: saline with Tween-80) was 92 % of control, the T/C [16] was 87 % of control and the T/C [7] was 92 % of control. The T/C [8] was 86 % of control.

COP(=S)(OC)SCc1cc(=O)n2c(C)cccc2n1 was tested, and the T/C (dose: 6.25 mg/kg/injection, schedule: Q01DX005 (ip), vehicle: distilled water + alcohol) was 102 % of control, the T/C (dose: 12.5 mg/kg/injection, schedule: Q01DX005 (ip), vehicle: distilled water + alcohol) was 100 % of control and the T/C (dose: 25.0 mg/kg/injection, schedule: Q01DX005 (ip), vehicle: distilled water + alcohol) was 102 % of control.

Nc1ncccc1OCc1ccccc1 was tested, and the T/C [17] was 100 % of control and 110 % of control, the T/C [18] was 107 % of control and 116 % of control and the T/C (dose: 200.0 mg/kg/injection, schedule: Q01DX009 (ip), vehicle: saline) was 113 % of control and 98 % of control. For the same molecule, the T/C (dose: 400.0 mg/kg/injection, schedule: Q01DX009 (ip), vehicle: saline) was 100 % of control and 95 % of control.

For CCSC1C(=O)N(C)C(SCC)C(=O)N1C (configuration not stated), the T/C [19] was 103 % of control, the T/C [20] was 109 % of control and the T/C [17] was 100 % of control and 86 % of control.

For CCn1c2ccccc2c2cc(N)c(N=Nc3ccc(N(C)C)cc3)cc21, the T/C (dose: 50.0 mg/kg/injection, schedule: Q01DX009 (ip), vehicle: Klucel (hydroxypropylcellulose) (HPC)) was 113 % of control, the T/C (dose: 100.0 mg/kg/injection, schedule: Q01DX009 (ip), vehicle: Klucel (hydroxypropylcellulose) (HPC)) was 105 % of control and the T/C (dose: 200.0 mg/kg/injection, schedule: Q01DX009 (ip), vehicle: Klucel (hydroxypropylcellulose) (HPC)) was 103 % of control.

In the case of CCOC1CC(=O)C2(C)C3CCC4(C)C(C(C)C5CC(C)=C(CO)C(=O)O5)CCC4C3CC3OC32C1O (configuration not stated), the T/C (dose: 12.67 mg/kg/injection, schedule: Q01DX009 (ip), vehicle: saline + alcohol) is reported as 101 % of control, the T/C (dose: 25.35 mg/kg/injection, schedule: Q01DX009 (ip), vehicle: saline + alcohol) is reported as 104 % of control and the T/C (dose: 50.7 mg/kg/injection, schedule: Q01DX009 (ip), vehicle: saline + alcohol) is reported as 92 % of control.

In the case of CCCCNCCC(SS)c1ccc(Cl)cc1 (configuration not stated), the T/C [16] is reported as 110 % of control, the T/C [7] is reported as 100 % of control and the T/C [8] is reported as 100 % of control.

In the case of COc1cccc(C(=O)Nc2ccccc2-c2ccccc2)c1OC, the T/C [15] is reported as 97 % of control, the T/C [21] is reported as 95 % of control and the T/C [22] is reported as 87 % of control.

With CC(C)=CC[P+](CP(c1ccccc1)c1ccccc1)(c1ccccc1)c1ccccc1 the T/C (dose: 3.12 mg/kg/injection, schedule: Q01DX005 (ip), vehicle: saline with Tween-80) was 107 % of control, the T/C (dose: 6.25 mg/kg/injection, schedule: Q01DX005 (ip), vehicle: saline with Tween-80) was 105 % of control and the T/C (dose: 12.5 mg/kg/injection, schedule: Q01DX005 (ip), vehicle: saline with Tween-80) was 89 % of control.

With N=C(N)COCc1ccccc1 the T/C [20] was 116 % of control, the T/C [17] was 120 % of control and the T/C [18] was 111 % of control.

COc1cc(OC)c(C2SCC(=O)N2c2nnc(C(F)(F)F)s2)cc1OC (configuration not stated) was tested, and the T/C [12] was 100 % of control, the T/C [13] was 99 % of control and the T/C [14] was 98 % of control.

With NC(CCSCc1ccccc1)P(=O)(O)O (configuration not stated) the T/C [15] was 100 % of control, the T/C [21] was 97 % of control and the T/C [22] was 92 % of control.

CC12CCC(OC3OC(CO)C(O)C(O)C3O)C=C1CCC1C2CCC2(C)C(c3ccc(=O)oc3)CCC12 (configuration not stated) was tested, and the T/C [9] was 95 % of control, the T/C [10] was 98 % of control and the T/C [11] was 101 % of control and 98 % of control.

In the case of CN(C)CCCn1c2c(c3ccccc31)CCCCC2, the T/C [15] is reported as 97 % of control, the T/C [21] is reported as 101 % of control and the T/C [22] is reported as 94 % of control.

With Cc1c2cnccc2c(CO)c2[nH]c3ccccc3c12 the T/C (dose: 12.5 mg/kg/injection, schedule: Q04DX002 (ip), vehicle: saline with Tween-80) was 119 % of control and the T/C (dose: 100.0 mg/kg/injection, schedule: Q04DX002 (ip), vehicle: saline with Tween-80) was 163 % of control.

For CCC1(CC)C(=O)N(C(C)=O)C2(C)C(=O)NC(=O)N2C1=O (configuration not stated), the T/C (dose: 100.0 mg/kg/injection, schedule: Q01DX001 (ip), vehicle: saline) was 100 % of control, the T/C (dose: 200.0 mg/kg/injection, schedule: Q01DX001 (ip), vehicle: saline) was 100 % of control and the T/C (dose: 400.0 mg/kg/injection, schedule: Q01DX001 (ip), vehicle: saline) was 101 % of control.

Cc1cc(NCCCCCCCNc2cc(C)nc3cc(N)ccc23)c2ccc(N)cc2n1 was tested, and the T/C (dose: 1.56 mg/kg/injection, schedule: Q01DX009 (ip), vehicle: other) was 165 % of control, the T/C (dose: 3.13 mg/kg/injection, schedule: Q01DX009 (ip), vehicle: other) was 158 % of control and the T/C (dose: 6.25 mg/kg/injection, schedule: Q01DX009 (ip), vehicle: other) was 186 % of control and 196 % of control. The T/C (dose: 12.5 mg/kg/injection, schedule: Q01DX009 (ip), vehicle: other) was 157 % of control and 186 % of control.

For CC1C(c2ccccc2)OCN1CC=C(c1ccsc1)c1ccsc1 (configuration not stated), the T/C [4] was 96 % of control, the T/C [5] was 91 % of control and the T/C [6] was 91 % of control.

For CCCCCCCCCCCCCC[N+]1([O-])CCCCC1, the T/C [19] was 100 % of control, the T/C [20] was 92 % of control and the T/C [17] was 106 % of control and 91 % of control.
